In data set [1] the target is T1, AChE from Electrophorus electricus (Electrophorus electricus, UniProt O42275).
T1 construct: purchased Sigma (St. Louis, MO, USA)
The experiment in a line: biochemical. As to the method:
AChEI activity was measured using Ellman’s method. AChE hydrolyzes the substrate ACTI into acetate and thiocholine. In a neutral and alkaline medium; thiocholine reacts with DTNB to give yellow colored 2-nitro-5-thiobenzoate, which can be detected spectrophotometrically at 405 nm. Briefly, in a 96-well plate, 25 µL of 15 mM ACTI, 125 µL of 3 mM DTNB in buffer B (50 mM Tris HCl, pH = 8, 0.1 M NaCl, 0.02 M MgCl2·6H2O), 50 µL of buffer A (50 mM Tris-HCl, PH 8, 0.1% BSA) and 25 µL of tested sample (dissolved in 25% DMSO) were mixed, and the absorbance was measured using a microplate reader (Biotek, Winooski, VT, USA) at 405 nm every 16 s ten times. Then, 25 µL of AChE (0.25 U/mL in buffer A) was added and the absorbance was measured ten times every 16 s. A solution of 25% DMSO was used as a negative control. Absorbance was plotted against time and enzyme activity was calculated from the slope of the line so obtained and expressed as a percentage compared to an assay using a buffer without any inhibitor. Fractions were tested at 400 µg/mL. To avoid any increase in absorbance due to the color of the compounds or spontaneous hydrolysis of the substrate, the absorbance before addition of the enzyme was subtracted from the absorbance after adding the enzyme.
(§1) IC50 values of isolated compounds in AChEI and scavenging of hydroxyl radical assays were calculated using Probit Analysis (SPSS Version 16.0 for Windows, SPSS Inc., Chicago, IL, USA) for five different concentrations in three independent experiments. Cell viability was expressed as a percentage of MTT reduction, assuming that the viability of cells treated with 1% DMSO as a negative control was 100%. Figures were built in Microsoft Excel 2010. All values are the mean ± SD of three independent experiments. Data were analyzed for statistical significance using one-way ANOVA, followed by Dunnet’s test as a post-hoc test with GraphPad Prism 5.0 software for Windows (Inc., San Diego, CA, USA).

Data set [2] is described as follows: Scavenging of hydroxyl radical, 2-deoxyribose degradation assay. Particulars: for % Inhibition of deoxyribose degradation, Site-Specific / % Inhibition of deoxyribose degradation, Non Site-Specific: 300 µM; for % Inhibition of deoxyribose degradation, Non Site-Specific: 25 min, pH 7.4. On the procedure: The inhibitory effect of bioactive compounds on deoxyribose degradation was determined by measuring the competition between deoxyribose and bioactive compounds for the hydroxyl radicals (^.OH) generated from the Fe^3+/ascorbate/EDTA/H2O2 system (referred to non-site-specific assay; the major activity measured is ^.OH scavenging) or an Fe^3+/ascorbate/H2O2 system (referred to as a site-specific assay; major activity measured is metal chelation). Both assays depend on the formation of a highly reactive hydroxyl radical, OH, by the interaction of iron ions with H2O2 through Fenton’s reaction. […] This assay was performed as previously described. Different concentrations of tested compounds were dissolved in 400 µL phosphate buffer (0.2 M, pH 7.4). Then, 50 µL of deoxyribose (60 mM), 50 µL of Na2EDTA (2 mM), 50 µL of FeCl3 (3.2 mM), 50 µL of H2O2 (60 mM) and 50 µL of ascorbic acid (2 mM) were added, and the total volume of the reaction mixture was adjusted to 1 mL with buffer. After water-bath incubation at 50 °C for 25 min, the reaction was terminated by 250 µL of trichloroacetic acid (10%, w/w). […] For site-specific hydroxyl-radical-scavenging activity, the reaction mixture was similar to the above method, except that EDTA was replaced by an equivalent volume of buffer.
as §1, with “Figures were built in Microsoft Excel 2010.” left out

For data set [3], the system named is neuro-2A cells. The data set can be described thus: Protection against H2O2-induced neurotoxicity (MTT). Type of data set: cell-based, Mouse. Particulars: for Protection against H2O2: summary Table 4; for neuroprotection against H2O2-induced neurotoxicity (in words): 6.25-100 µM, H2O2 150 µM. On the procedure: (§2) Neuro-2A cell line was maintained in Eagle’s Minimum Essential medium supplemented with 10% fetal bovine serum, 1% of 100× antibiotic—antimitotic agents (containing penicillin and streptomycin) in a humid atmosphere of 5% (v/v) CO2 and 95% (v/v) air at 37 °C. Neuro-2A cells were plated in 96-well cell culture plates at a density of 3 × 10^4 cells/well for H2O2 and intracellular ROS assays and 2.5 × 10^3 cells/well for the Aβ25-35-assay.
(§3) Cell viability was determined by MTT reduction assay. Briefly, after treatment with isolated compounds, the media was replaced by fresh one after washing the cells with 100 µL PBS and 20 µL of MTT (5 mg/mL) was added to each well. After 4 h incubation at 37 °C, the state of cells was checked under microscope to confirm either cytotoxicity in H2O2 and Aβ25-35 wells or protection in positive controls and isolated compounds ones. The supernatants were aspirated carefully, and 150 µL of DMSO was added to each well to dissolve the dark blue formazan crystals. The absorbance was measured using a microplate reader at 570 nm.
H2O2 interacts with metals in the medium, producing highly cytotoxic hydroxyl radicals that induce neurotoxicity. So, active compounds are those that can scavenge free radicals and increase the cell viability. This assay was performed as previously described with slight modifications. Briefly, the concentration of H2O2 that decreased cell viability to about 50% was determined as follows: cells were cultured in a 96-well plate and after 24 h were further incubated with different concentrations of H2O2 (50, 100, 150, 200 µM) freshly prepared from 30% stock solution. After 24 h, cell viability was determined using the MTT reduction method. H2O2 at a concentration of 150 µM had the desired cytotoxicity and was used for the next step.

The test system of data set [4] is intracellular ROS in Neuro-2A cells. The data set can be described thus: Scavenging of intracellular reactive oxygen species (Bes-H2O2-AC, DFF fluorescence). For Intracellular ROS Scavenging: key: +: Weak activity; ++: Strong activity. Type of data set: cell-based, Mouse. As to conditions: for decrease of DFF fluorescence intensity (intracellular ROS): at 50 and 100 µM, H2O2 600 µM 30 min; for Intracellular ROS Scavenging: summary Table 4. On the procedure:
as §2
This assay was performed as previously described with some modifications. Briefly, Neuro-2A cells were seeded in 96-well Clear Fluorescence Black Plate (number 655090, Greiner Bio-one, Tokyo, Japan). Cells were treated with three different concentrations (25, 50, 100 µM) of the samples. After 2 h incubation, cells were subjected to oxidative stress using 600 µM of H2O2 for 30 min. The nucleus was stained by Hoechst 33342 (Dojindo, Kumamoto, Japan), and the amount of difluorofluorescein (DFF) released from the reaction of H2O2 and BES-H2O2-Ac was taken as an indication of the amount of intracellular H2O2 and ROS. Images of each well were acquired using an IN Cell Analyzer 1000 (GE Healthcare, Buckinghamshire, UK) using 360-nm (Hoechst 33342) and 480-nm (BES-H2O2-Ac) excitation filters and monitored through 460-nm and 535-nm emission filters, respectively. Developer software was used to analyze the images of Hoechst 33342 and BES-H2O2-Ac staining, and the resulting data were then applied to Spotfire Decision Site Client 8.2 software for visualizing the results.

In data set [5] the test system is neuro-2A cells. The data set can be described thus: Protection against Aβ25-35-induced neurotoxicity (MTT). For Protection against Aβ25-35: key: +: Weak activity; ++: Strong activity. Type of data set: cell-based, Mouse. Particulars: for neuroprotection against Aβ25-35 (in words): at the highest concentration (100 µM); for Protection against Aβ25-35: summary Table 4. As to the method:
as §2, §3
Similarly, the concentration of Aβ25-35 that decreased cell viability to about 50% was determined. […] So, the cells were incubated with different concentrations of the isolated compounds (6.25, 12.5, 25, 50 and 100 µM) and EGCG as a positive control for 3 h followed by Aβ25-35 treatment for 72 h.

Setting [6] is: summary Table 4, read-out: AchEI IC50.
[7] abbreviates: Fe3+/ascorbate/EDTA/H2O2 system, read-out: IC50 hydroxyl radical scavenging, Non Site-Specific.
Where [8] appears, read: Fe3+/ascorbate/H2O2 system without EDTA, read-out: IC50 hydroxyl radical scavenging, Site-Specific.
[9] abbreviates: Ellman's method, read-out: IC50 in the AChEI assay.
Where [10] appears, read: summary Table 4 (values of the non site-specific assay), read-out: Hydroxyl Radical Scavenging/IC50.

Like-named read-outs stand apart in the source and are kept apart here.

T1 sequence (O42275 24-633): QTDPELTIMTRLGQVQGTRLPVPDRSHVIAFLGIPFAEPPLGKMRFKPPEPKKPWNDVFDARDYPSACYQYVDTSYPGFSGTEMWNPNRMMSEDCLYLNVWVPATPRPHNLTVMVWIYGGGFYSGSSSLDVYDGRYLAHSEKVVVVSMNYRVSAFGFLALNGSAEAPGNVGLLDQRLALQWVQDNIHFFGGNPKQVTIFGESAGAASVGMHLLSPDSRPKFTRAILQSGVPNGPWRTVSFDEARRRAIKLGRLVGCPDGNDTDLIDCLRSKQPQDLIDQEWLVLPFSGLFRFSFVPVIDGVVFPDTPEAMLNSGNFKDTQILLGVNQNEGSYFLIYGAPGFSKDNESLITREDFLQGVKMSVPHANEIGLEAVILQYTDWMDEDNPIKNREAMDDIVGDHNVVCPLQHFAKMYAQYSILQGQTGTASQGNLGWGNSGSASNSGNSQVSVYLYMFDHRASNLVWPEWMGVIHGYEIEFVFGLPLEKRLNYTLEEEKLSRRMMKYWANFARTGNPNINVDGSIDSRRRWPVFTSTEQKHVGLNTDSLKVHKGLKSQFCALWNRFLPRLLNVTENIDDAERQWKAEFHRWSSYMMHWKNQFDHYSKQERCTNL

`O=Cc1ccc(CO)o1` [5-(Hydroxymethyl)-2-furaldehyde (7), 5-(hydroxymethyl)-2-furaldehyde]: in data set [1] (Ellman's method), the “IC50 in the AChEI assay” value is “inactive”. Also, in data set [1] (setting [6]), the IC50 is > 500 µM. Also, in data set [2], the “% Inhibition of deoxyribose degradation, Site-Specific” value is recorded as “-” and the “% Inhibition of deoxyribose degradation, Non Site-Specific” value was 4 ± 0.3%.

Regarding `Nc1ncnc2c1ncn2[C@@H]1O[C@H](CO)[C@@H](O)[C@H]1O` [Adenosine (15), adenosine], the “IC50 in the AChEI assay” value in data set [1] (Ellman's method) was “inactive”. For the same molecule, in data set [1] (setting [6]), the IC50 was > 500 µM.

`Oc1cc(O)c2c(c1)OC(c1ccc(O)c(O)c1)C(O)C2` (centres unmarked) [Catechin (positive control), Catechin, reference compound]: the IC50 in data set [2] (setting [7]) worked out at 473 ± 8.6 µM; in data set [2] (setting [8]), 534 ± 19.2 µM.

Consider `O=C(/C=C/c1ccc(O)c(O)c1)O[C@@H]1C[C@](O)(C(=O)O)C[C@@H](O)[C@H]1O` [Chlorogenic acid (11), chlorogenic acid], for which the “IC50 in the AChEI assay” value in data set [1] (Ellman's method) is “inactive”. For the same molecule, in data set [1] (setting [6]), the IC50 was > 500 µM. Also, the “Protection against H2O2” value in data set [3] is recorded as “++”. In data set [4], the “decrease of DFF fluorescence intensity (intracellular ROS)” value (shortened to “decrease of DFF fluorescence intensity”) is listed as “significantly decrease the fluorescence intensity” and the “Intracellular ROS Scavenging” value is on record as “++”.

With `OO` [H2O2, reference compound], the “cytotoxicity of H2O2” value in data set [3] (150 µM H2O2, 24 h, MTT) was 48.2% ± 1.8%.

Take `O=c1cc(-c2ccc(O)c(O)c2)oc2cc(O)cc(O)c12` [Luteolin (9), luteolin]: the IC50 in data set [1] (setting [9]) is > 500 µM; in data set [1] (setting [6]), > 500 µM; in data set [2] (setting [7]), 753 ± 11.1 µM; in data set [2] (setting [8]) it was 980 ± 15.8 µM; in data set [2] (setting [10]), 753 ± 11.1 µM. Also, in data set [1] (at 250 µM), testing at 250 µM gave an inhibition of 30%. Also, in data set [3], the “Protection against H2O2” value is on record as “++”. Besides, the “decrease of DFF fluorescence intensity” value in data set [4] was “significantly decrease the fluorescence intensity”. In data set [4], the “Intracellular ROS Scavenging” value is recorded as “++”. The “neuroprotection against Aβ25-35 (in words)” value in data set [5] is listed as “significant neuroprotection (p < 0.05)”. For the same molecule, the “Protection against Aβ25-35” value in data set [5] was “+”.

As for `COC(=O)C1(O)CC(O)C(O)C(OC(=O)C=Cc2ccc(O)c(O)c2)C1` (centres unmarked) [Methyl chlorogenate (10), methyl chlorogenate], the IC50 was > 500 µM in data set [1] (setting [9]); > 500 µM in data set [1] (setting [6]); 840 ± 12.4 µM in data set [2] (setting [7]); 920 ± 10.9 µM in data set [2] (setting [8]); 840 ± 12.4 µM in data set [2] (setting [10]). The inhibition at 500 µM in data set [1] (at 500 µM) was determined as 10%. For the same molecule, the “Protection against H2O2” value in data set [3] is on record as “++”. Moreover, the “decrease of DFF fluorescence intensity” value in data set [4] was “significantly decrease the fluorescence intensity”. In addition, in data set [4], the “Intracellular ROS Scavenging” value was “++”.

`O=c1c(O)c(-c2ccc(O)c(O)c2)oc2cc(O)cc(O)c12` [Quercetin (12), quercetin]: the “Protection against H2O2” value in data set [3] is on record as “++”. Besides, in data set [4], the “decrease of DFF fluorescence intensity” value was “significantly decrease the fluorescence intensity” and the “Intracellular ROS Scavenging” value was “++”. Besides, the IC50 in data set [2] (setting [7]) was 672 ± 10.6 µM. The IC50 in data set [2] (setting [8]) came out at 837 ± 21.6 µM. Moreover, the IC50 in data set [2] (setting [10]) worked out at 672 ± 10.6 µM. Also, in data set [5], the “neuroprotection against Aβ25-35 (in words)” value is “significant neuroprotection (p < 0.05)” and the “Protection against Aβ25-35” value is reported as “+”.

In the case of `CC1(C)CCC2(C)CCC3(C)C4CC=C5C(CCC(O)C5(C)C)C4(C)CCC3(C)C2C1` (stereo not drawn) [α-Glutinol (1), α-glutinol], in data set [1] (Ellman's method), the “IC50 in the AChEI assay” value was “inactive”. Further, the IC50 in data set [1] (setting [6]) was > 500 µM. For the same molecule, in data set [3], the “neuroprotection against H2O2-induced neurotoxicity (in words)” value is “did not show significant neuroprotection”.

Take `CC1(C)CC[C@]2(C)CC[C@]3(C)C(=CC[C@@H]4[C@@]5(C)CC[C@H](O)C(C)(C)[C@@H]5CC[C@]43C)[C@@H]2C1` [β-Amyrin (2), β-amyrin]: in data set [1] (Ellman's method), the “IC50 in the AChEI assay” value was “inactive”. In addition, the IC50 in data set [1] (setting [6]) was > 500 µM. The “neuroprotection against H2O2-induced neurotoxicity (in words)” value in data set [3] is “did not show significant neuroprotection”. Besides, in data set [2], the “% Inhibition of deoxyribose degradation, Site-Specific” value was “-” and the “% Inhibition of deoxyribose degradation, Non Site-Specific” value is “-”.

As to `CCC(CCC(C)C1CCC2C3CC=C4CC(OC5OC(CO)C(O)C(O)C5O)CCC4(C)C3CCC12C)C(C)C` (stereo not drawn) [β-Sitosterol-3-O-glucoside (5), β-sitosterol-3-O-glucoside], in data set [1] (Ellman's method), the “IC50 in the AChEI assay” value is “inactive”. Also, in data set [1] (setting [6]), the IC50 was > 500 µM.

Turning to “Aβ25-35: amyloid β peptide fragment used to induce neurotoxicity (GSNKGAIIGLM; Amyloid-beta protein 42; UniProt P05067 696-706, looked up, fragment) [reference compound]”, in data set [5] (25 µM, 72 h incubation), the “cytotoxicity of Aβ25-35” value is 55% ± 4.6%.

(Values after publication PMC6272295, “In Vitro Neuroprotective Activities of Compounds from Angelica shikokiana Makino” (Molecules, 2015).)
